Laboratory results published in patent publication US9340513B2, “Propenoate derivatives of betulin” (GlaxoSmithKline LLC, priority 2011, dated 2016).

Tested on: HIV-1 (strain IIIB)
Test: MT4 Cell Antiviral Assay
Type: cell-based
Details: Human immunodeficiency virus 1, 120 h; HIV-1 strain IIIB in MT4 cells, 5 days, Cell Titer-Glo; 50% decrease in HIV-induced cytopathic effect
Method: Antiviral HIV activity and compound-induced cytotoxicity were measured in parallel based on a modified protocol of the propidium iodide based procedure in the human T-cell lymphotropic virus transformed cell line MT4. Aliquots of the test compounds were serially diluted in DMSO plated in 96-well plates. Exponentially growing MT4 cells were harvested and pelleted. Cell pellets were resuspended in fresh medium (RPMI 1640, 10% FCS, and gentamycin. Cell aliquots were infected by the addition of HIV-1 (strain IIIB) diluted to give a viral multiplicity of infection of 300×TCID50/million cells. A similar cell aliquot was diluted with medium to provide a mock-infected control. Cell infection was allowed to proceed for 1 hr at 37° C. in a tissue culture incubator with humidified 5% CO2 atmosphere. After the 1 hr incubation the virus/cell suspensions were diluted with fresh medium, and added to each well of the plate containing pre-diluted compound. Plates were then placed in a tissue culture incubator with humidified 5% CO2 for 5 days. […] The plates were analyzed in an automated plate reader for luminescence.assay. The control and standard used was efavirinz tested over a concentration range of 0.001 to 1 μM in every assay. The expected range of IC50 values for efavirinz is 0.1 to 1 nM.
The antiviral effect of a test compound is reported as an IC50, i.e. the inhibitory concentration that would produce a 50% decrease in the HIV-induced cytopathic effect. This effect is measured by the amount of test compound required to restore 50% of the cell growth of HIV-infected MT4 cells, compared to uninfected MT4 cell controls. IC50 was calculated by RoboSage, Automated Curve Fitting Program.
For each assay plate, the results (of wells containing uninfected cells or infected cells with no compound were averaged, respectively. For measurements of compound-induced cytotoxicty, results from wells containing various compound concentrations and uninfected cells were compared to the average of uninfected cells without compound treatment. Percent of cells remaining is determined by the following formula: Percent of cells remaining=(compound-treated uninfected cells/untreated uninfected cells)×100.
A level of percent of cells remaining of 79% or less indicates a significant level of direct compound-induced cytotoxicity for the compound at that concentration. When this condition occurs the results from the compound-treated infected wells at this concentration are not included in the calculation of IC50.
For measurements of compound antiviral activity, results from wells containing various compound concentrations and infected cells are compared to the average of uninfected and infected cells without compound treatment. Percent inhibition of virus is determined by the following formula: Percent inhibition of virus=(1−((ave. untreated uninfected cells−treated infected cells)/(ave. untreated uninfected cells−ave. untreated infected cells)))×100

Question: With CC(C)C1=C2[C@H]3CC[C@@H]4[C@@]5(C)CC[C@H](OC(=O)CC(C)(C)C(=O)O)C(C)(C)[C@@H]5CC[C@@]4(C)[C@]3(C)CC[C@@]2(/C=C/C(=O)Nc2ccccn2)CC1=O [Example 19] as the compound, how does the IC50 read?
Answer: The IC50 was 10 to 250 nM.

Question: CC(C)C1=C2[C@H]3CC[C@@H]4[C@@]5(C)CC[C@H](OC(=O)CC(C)(C)C(=O)O)C(C)(C)[C@@H]5CC[C@@]4(C)[C@]3(C)CC[C@@]2(/C=C/C(=O)NC2(c3ccccc3Cl)CC2)CC1=O [Example 20, 4-(((3aS,5aR,5bR,7aR,9S,11aR,11bR,13aS)-3a-((E)-3-((1-(2-Chlorophenyl)cyclopropyl)amino)-3-oxoprop-1-en-1-yl)-1-isopropyl-5a,5b,8,8,11a-pentamethyl-2-oxo-3,3a,4,5,5a,5b,6,7,7a,8,9,10,11,11a,11b,12,13,13a-octadecahydro-2H-cyclopenta[a]chrysen-9-yl)oxy)-2,2-dimethyl-4-oxobutanoic acid] was tested. Which IC50 did it give?
Answer: The IC50 was 10 to 250 nM.

Question: How did the IC50 turn out when Cc1ccc(NC(=O)/C=C/[C@@]23CC[C@]4(C)[C@H](CC[C@@H]5[C@@]6(C)CC[C@H](OC(=O)CC(C)(C)C(=O)O)C(C)(C)[C@@H]6CC[C@]54C)C2=C(C(C)C)C(=O)C3)cc1 [Example 21, 4-(((3aS,5aR,5bR,7aR,9S,11aR,11bR,13aS)-1-Isopropyl-5a,5b,8,8,11a-pentamethyl-2-oxo-3a-((E)-3-oxo-3-(p-tolylamino)prop-1-en-1-yl)-3,3a,4,5,5a,5b,6,7,7a,8,9,10,11,11a,11b,12,13,13a-octadecahydro-2H-cyclopenta[a]chrysen-9-yl)oxy)-2,2-dimethyl-4-oxobutanoic acid] was run?
Answer: The IC50 was 10 to 250 nM.

Question: For CC(C)C1=C2[C@H]3CC[C@@H]4[C@@]5(C)CC[C@H](OC(=O)CC(C)(C)C(=O)O)C(C)(C)[C@@H]5CC[C@@]4(C)[C@]3(C)CC[C@@]2(/C=C/C(=O)N[C@H](C)c2ccccc2Cl)CC1=O [Example 22, 4-(((3aS,5aR,5bR,7aR,9S,11aR,11bR,13aS)-3a-((E)-3-(((R)-1-(2-Chlorophenyl)ethyl)amino)-3-oxoprop-1-en-1-yl)-1-isopropyl-5a,5b,8,8,11a-pentamethyl-2-oxo-3,3a,4,5,5a,5b,6,7,7a,8,9,10,11,11a,11b,12,13,13a-octadecahydro-2H-cyclopenta[a]chrysen-9-yl)oxy)-2,2-dimethyl-4-oxobutanoic acid], which IC50 is on record?
Answer: Its IC50 is 10 to 250 nM.

Question: Which IC50 does the source give for CC(C)C1=C2[C@H]3CC[C@@H]4[C@@]5(C)CC[C@H](OC(=O)CC(C)(C)C(=O)O)C(C)(C)[C@@H]5CC[C@@]4(C)[C@]3(C)CC[C@@]2(/C=C/C(=O)N[C@@H](C)c2cccc(Cl)c2)CC1=O [Example 23, 4-(((3aS,5aR,5bR,7aR,9S,11aR,11bR,13aS)-3a-((E)-3-(((S)-1-(3-Chlorophenyl)ethyl)amino)-3-oxoprop-1-en-1-yl)-1-isopropyl-5a,5b,8,8,11a-pentamethyl-2-oxo-3,3a,4,5,5a,5b,6,7,7a,8,9,10,11,11a,11b,12,13,13a-octadecahydro-2H-cyclopenta[a]chrysen-9-yl)oxy)-2,2-dimethyl-4-oxobutanoic acid] here?
Answer: The IC50 was 10 to 250 nM.

Question: With CC(C)C1=C2[C@H]3CC[C@@H]4[C@@]5(C)CC[C@H](OC(=O)CC(C)(C)C(=O)O)C(C)(C)[C@@H]5CC[C@@]4(C)[C@]3(C)CC[C@@]2(/C=C/C(=O)NC2(c3cccc(Cl)c3)CC2)CC1=O [Example 24, 4-(((3aS,5aR,5bR,7aR,9S,11aR,11bR,13aS)-3a-((E)-3-((1-(3-Chlorophenyl)cyclopropyl)amino)-3-oxoprop-1-en-1-yl)-1-isopropyl-5a,5b,8,8,11a-pentamethyl-2-oxo-3,3a,4,5,5a,5b,6,7,7a,8,9,10,11,11a,11b,12,13,13a-octadecahydro-2H-cyclopenta[a]chrysen-9-yl)oxy)-2,2-dimethyl-4-oxobutanoic acid] as the compound, how does the IC50 read?
Answer: The IC50 was under 10 nM.

Question: Which IC50 does the source give for CC(C)C1=C2[C@H]3CC[C@@H]4[C@@]5(C)CC[C@H](OC(=O)CC(C)(C)C(=O)O)C(C)(C)[C@@H]5CC[C@@]4(C)[C@]3(C)CC[C@@]2(/C=C/C(=O)N[C@@H](C)c2ccccc2Cl)CC1=O [Example 25, 4-(((3aS,5aR,5bR,7aR,9S,11aR,11bR,13aS)-3a-((E)-3-(((S)-1-(2-Chlorophenyl)ethyl)amino)-3-oxoprop-1-en-1-yl)-1-isopropyl-5a,5b,8,8,11a-pentamethyl-2-oxo-3,3a,4,5,5a,5b,6,7,7a,8,9,10,11,11a,11b,12,13,13a-octadecahydro-2H-cyclopenta[a]chrysen-9-yl)oxy)-2,2-dimethyl-4-oxobutanoic acid] here?
Answer: Its IC50 is 10 to 250 nM.

Question: Which IC50 does the source give for CC(C)C1=C2[C@H]3CC[C@@H]4[C@@]5(C)CC[C@H](OC(=O)CC(C)(C)C(=O)O)C(C)(C)[C@@H]5CC[C@@]4(C)[C@]3(C)CC[C@@]2(/C=C/C(=O)NC2(c3ncc(Cl)cn3)CC2)CC1=O [Example 26, 4-(((3aS,5aR,5bR,7aR,9S,11aR,11bR,13aS)-3a-((E)-3-((1-(5-Chloropyrimidin-2-yl)cyclopropyl)amino)-3-oxoprop-1-en-1-yl)-1-isopropyl-5a,5b,8,8,11a-pentamethyl-2-oxo-3,3a,4,5,5a,5b,6,7,7a,8,9,10,11,11a,11b,12,13,13a-octadecahydro-2H-cyclopenta[a]chrysen-9-yl)oxy)-2,2-dimethyl-4-oxobutanoic acid] here?
Answer: The IC50 was under 10 nM.

Question: C/C(=C\[C@@]12CC[C@]3(C)[C@H](CC[C@@H]4[C@@]5(C)CC[C@H](OC(=O)CC(C)(C)C(=O)O)C(C)(C)[C@@H]5CC[C@]43C)C1=C(C(C)C)C(=O)C2)C(=O)NC1(c2ccc(Cl)cc2)CC1 [Example 27, 4-(((3aS,5aR,5bR,7aR,9S,11aR,11bR,13aS)-3a-((E)-3-((1-(4-Chlorophenyl)cyclopropyl)amino)-2-methyl-3-oxoprop-1-en-1-yl)-1-isopropyl-5a,5b,8,8,11a-pentamethyl-2-oxo-3,3a,4,5,5a,5b,6,7,7a,8,9,10,11,11a,11b,12,13,13a-octadecahydro-2H-cyclopenta[a]chrysen-9-yl)oxy)-2,2-dimethyl-4-oxobutanoic acid] was tested. Which IC50 did it give?
Answer: The IC50 was under 10 nM.

Question: For C/C(=C\[C@@]12CC[C@]3(C)[C@H](CC[C@@H]4[C@@]5(C)CC[C@H](OC(=O)CC(C)(C)C(=O)O)C(C)(C)[C@@H]5CC[C@]43C)C1=C(C(C)C)C(=O)C2)C(=O)NC1(c2ncc(Cl)cn2)CC1 [Example 28, 4-(((3aS,5aR,5bR,7aR,9S,11aR,11bR,13aS)-3a-((E)-3-((1-(5-Chloropyrimidin-2-yl)cyclopropyl)amino)-2-methyl-3-oxoprop-1-en-1-yl)-1-isopropyl-5a,5b,8,8,11a-pentamethyl-2-oxo-3,3a,4,5,5a,5b,6,7,7a,8,9,10,11,11a,11b,12,13,13a-octadecahydro-2H-cyclopenta[a]chrysen-9-yl)oxy)-2,2-dimethyl-4-oxobutanoic acid], which IC50 is on record?
Answer: The IC50 was under 10 nM.

Question: With C/C(=C\[C@@]12CC[C@]3(C)[C@H](CC[C@@H]4[C@@]5(C)CC[C@H](OC(=O)CC(C)(C)C(=O)O)C(C)(C)[C@@H]5CC[C@]43C)C1=C(C(C)C)C(=O)C2)C(=O)NC1(c2cccc(Cl)c2)CC1 [Example 29, 4-(((3aS,5aR,5bR,7aR,9S,11aR,11bR,13aS)-3a-((E)-3-((1-(3-Chlorophenyl)cyclopropyl)amino)-2-methyl-3-oxoprop-1-en-1-yl)-1-isopropyl-5a,5b,8,8,11a-pentamethyl-2-oxo-3,3a,4,5,5a,5b,6,7,7a,8,9,10,11,11a,11b,12,13,13a-octadecahydro-2H-cyclopenta[a]chrysen-9-yl)oxy)-2,2-dimethyl-4-oxobutanoic acid] as the compound, how does the IC50 read?
Answer: The IC50 was 10 to 250 nM.
